What is called melting point is the temperature, or range, at which the solid turns liquid.

These results are taken from a melting point compilation (Tetko et al.; mined from patent text by program, amines drawn as free bases though some values may be those of a salt).

Regarding `COc1ccccc1CN[C@H]1CCCN[C@H]1c1ccsc1` (relative stereo), the melting point is more than 239 °C.
The same measure for `COc1ccc(C2=NN(C3CCN(C(=O)CCSCCN)CC3)C(=O)[C@@H]3CC=CC[C@H]23)cc1OC`: 137 to 139 °C.
With `CCc1c(C=CC(=O)O)ccc2c1OCO2`, the melting point turned out to be 204 °C.
Regarding `CCCCCCCCCCCCCCCCCC(=O)N[C@@H](C)C(=O)O`, the melting point is 102 °C.
With `COc1nc(C)cnc1N(C(=O)OCC(C)C)S(=O)(=O)c1cccnc1-c1ccc(CBr)cc1`, the melting point lay within 125 to 128 °C.
For `CC(C)Oc1ccc(-c2noc(-c3ccc(CN4CC(C(=O)O)C4)cc3)n2)cc1Cl`, the melting point was in the range of 195 to 196 °C.
`O=C(NC(=NCCCOc1ccccc1)Oc1ccccc1)c1ccccc1`: the melting point was 75 °C.
With `COc1cc(C(=O)Nc2ccc(S(=O)(=O)C(F)(F)F)cc2Cl)c(O)c(C(C)(C)C)c1`, the melting point was 126 to 127 °C.
For the compound `CON=C(C(=O)OC)c1ccccc1/C=C(\Cl)C(=O)O`, the melting point is 107 to 109 °C.
Next, `O=CN1CCN(c2ccnc(Cl)n2)CC1`: 125 to 126 °C; `CC(C)[C@H](NC(=O)[C@H](Cc1ccccc1)NC(=O)c1ccccc1)C(=O)O`: 191 °C; `Cc1c(C2=C(c3cn(C)c4ccccc34)C(=O)NC2=O)c2ccccc2n1C`: more than 290 °C.
As for `COCC1(O)CCN(c2c(F)cc(N3C[C@H](CO)OC3=O)cc2F)CC1`, the melting point lay in the range of 117 to 119 °C.
`FC(F)C(F)(F)Oc1cccc(Nc2nccc(-c3cccs3)n2)c1` returned a melting point of 115 to 116 °C.
The same measure for `O=C(c1ccc([N+](=O)[O-])cc1[N+](=O)[O-])N1CCOCC1`: 159 to 161 °C; for `CCOC(=O)/C=C/c1ccc(OCCOC)cc1Oc1ncc(C(F)(F)F)cc1Cl`: 78.2 to 78.5 °C.
With `CCC(Oc1ccc(C2CCOCC2)cc1)C(=O)O` (configuration not stated), the melting point was 127 °C.
In turn, `Sc1nc(-c2ccc3c(c2)OCO3)c(-c2ccc3c(c2)OCO3)[nH]1` came in with a melting point of 282 to 283 °C.
For `COc1cccc(CN2CCCCC2C(=O)O)c1` (configuration not stated), the melting point lay within 186 to 187 °C.
`COc1ccc(Nc2ccccc2CCC(=O)c2ccccc2)cc1` came in with a melting point of 110 to 112 °C.
The same measure for `O=C(Nc1ccc2ccc(-c3ccccc3Cl)nc2n1)c1ccccc1`: 156 °C; for `COc1ccc2c(c1)CCC1C2CCC2(C)C1CCC2N(C)CCCO` (configuration not stated): 122 to 124 °C; for `N#Cc1cnc2cc(-c3ccc(CO)cc3)sc2c1Nc1ccc(Oc2ccccc2)cc1`: 225 to 228 °C.
On to `CC(C)C(OC(=O)NC(C)(Cc1ccccc1)C(=O)NC(Cc1ccc(O)cc1)C(=O)NCCCCCCCO)c1ccccc1` (configuration not stated), for which the melting point is 70 to 76 °C.
`Cc1cccc(N2CCCCC2)c1NC(N)=S` gave a melting point of 197 to 198 °C.
In the case of `Cc1ccc(C(=O)Nc2ccc(N3CCN(C(=O)OC(C)(C)C)CC3)cc2)c(-c2ccc(C(C)C)cc2)c1`, the melting point lay in the range of 173 to 175 °C.
Consider `O=C(NC[C@@H]1CN2C(=O)C[C@H]2O1)c1cc(F)ccc1F` (racemic), for which the melting point lay within 88.8 to 90.7 °C.
Turning to `C=CCCOc1ccc2c(c1)C(=O)c1cc3ccccc3cc1C2=O`, the melting point was determined as 149 °C.
Take `O=C(Oc1ccccc1Cl)c1ncn2c1[C@@H]1CCCN1C(=O)c1c(Cl)cccc1-2`: the melting point was 214 to 215 °C.
Consider `Cc1[nH]c(=O)c(C(N)=O)cc1-c1ccc2nccn2c1`, for which the melting point was more than 300 °C.
As for `CCCCCCCCCCCCCCCCCC1OCC(COC(O)CCC)O1` (configuration not stated), the melting point was 34 to 44 °C.
Regarding `O=C(CBr)c1ccc(-c2ccc([N+](=O)[O-])cc2)o1`, the melting point is 153 to 162 °C.
The compound `CC(C)(C)C(=O)Oc1c(N2CCCC2)c(=O)n(-c2ccccc2)c2ncccc12` had a melting point of 163 to 165 °C.
For the compound `C#Cc1cn(C2CC(O)C(COC(c3ccccc3)(c3ccccc3)c3ccccc3)O2)c(=O)[nH]c1=O` (configuration not stated), the melting point came to 110 °C.
With `CCCCc1nc2c(N)nc3ccccc3c2n1CCNC(=O)CCCCC1SCC2NC(=N)NC21` (configuration not stated), the melting point lay in the range of 95 to 96 °C.
The compound `COc1ccc(-c2cc(COCCc3cccc(NS(=O)(=O)C(F)(F)F)c3)ccc2F)cc1` came in with a melting point of 70 to 71 °C.
In turn, `CCN(CCNS(=O)(=O)c1ccc(C)cc1)C(=O)c1ccccc1C(=O)c1ccc(Cl)cc1` yielded a melting point of 145 to 147 °C.
For the compound `CC(C)(C#N)OC(=O)Nc1ccc(-c2ncn(-c3ccc(OC(F)(F)F)cc3)n2)cc1`, the melting point lay within 172 to 175 °C.
Next, `CSC(=NS(=O)(=O)c1ccccc1)Nc1ccc(C#N)cc1`: 150 °C.
For `CN(C)C=Cc1[nH]c(=O)ccc1C(=O)c1ccc(Br)cc1`, the melting point lay within 265 to 268 °C.
`COc1ccccc1NC(=O)Nc1nc(N2CCN(c3ccccc3OC(C)C)CC2)nc(N(CCC(=O)O)Cc2ccc(Cl)c(Cl)c2)n1` returned a melting point of 115 to 118 °C.
`Cc1cc(C=O)c2ccccc2c1O` registered a melting point of 160 to 161 °C.
`O=C1C(=Cc2ccccc2)N2CCC1C2` (configuration not stated) came in with a melting point of 61 to 63 °C.
`CCn1c(C(=O)c2cc(C)cc(C=CC#N)c2)c(C(C)C)c(=O)[nH]c1=O`: the melting point was in the range of 174 to 176 °C.
Consider `CN=C(C1=C(O)C(=O)c2ccccc2C1=O)c1ccccc1`, for which the melting point is 235 to 237 °C.
As to `CON=C(c1ccccc1OCc1ccc(Cl)cc1)n1ccnc1`, the melting point is 92.5 to 93.5 °C.
Turning to `O=c1c2ccccc2sc2cccc(Oc3cc(Cl)cc(Cl)c3)c12`, the melting point fell in the range of 207 to 213 °C.
On to `CC(C)(C)OC(=O)n1c(C#N)ccc1-c1ccc2c(c1)C(C)(C)OC(=O)N2`, for which the melting point fell in the range of 165 to 167 °C.
`COc1ccc2c3c1OC1CCCC4(O)C(C2)N(C(=O)C2CCC2)CCC314` (configuration not stated) came in with a melting point of 140 °C.
In the case of `Cn1cnc2c1c1n[nH]c(=S)n1c(=O)n2Cc1ccccc1`, the melting point worked out at 278 °C.
For `CC(C)(C)NCC(O)c1ccc(N)c(C#N)c1F` (configuration not stated), the melting point was 150 to 151 °C.
Next, `Cc1cc(-c2cc3nccnc3[nH]2)cn1C`: 253 °C.
For `O=C(NCC1CC1)c1cccnc1Oc1cncc(Cl)c1`, the melting point lay within 105 to 107 °C.
In turn, `CC(C)NC(=O)C(=O)c1ccc(Cl)cc1` yielded a melting point of 79 °C.
The same measure for `CCn1c(C)nc2cc(S(C)(=O)=O)ccc21`: 140 to 142 °C; for `O=C(O)c1cc2n(n1)CCC2`: 140 to 145 °C.
The same measure for `COc1ccc2cc([C@H](C)C(=O)NN)ccc2c1`: 106 to 108 °C.
The same measure for `Cc1cc(-c2ccc(Cl)cc2)nc2c(C(=O)Nc3cccc(S(C)(=O)=O)c3)cnn12`: 250 to 251 °C; for `CCCC(=O)NCCc1cc(-c2cccc(C(=O)OC)c2)cc2ccc(OC)cc12`: 86 to 88 °C.
`O=CC(Nc1ccc2c(c1)OCC(=O)N2)N1CCC(Cc2ccccc2)CC1` (configuration not stated) showed a melting point of 172 to 175 °C.
With `CN(C)CCCCOc1ccc(-c2nnc(CSCCOc3ccccc3)o2)cc1`, the melting point fell in the range of 62 to 63 °C.
With `COc1ccc(C2(C)C(=O)Nc3cc(N4CCN(C)CC4)cc(Cl)c3C2=O)cc1` (configuration not stated), the melting point was in the range of 201 to 202 °C.
Next, `CC(C)CC1(C(CCN2C(=O)c3ccc([N+](=O)[O-])cc3C2=O)C(=O)NO)CCN(CCc2ccccc2)C1=O` (configuration not stated): 161 to 162 °C; `Cc1cc([N+](=O)[O-])c(C)cc1Oc1cccc(C(F)(F)F)c1`: 68 to 71 °C.
As to `N#Cc1c(N2CCNCC2)c2cc(Cl)ccc2n(Cc2ccccc2)c1=O`, the melting point stood at 156 °C.
As to `CCc1nnc(/C=C/c2cn(-c3ccccc3)nc2OCc2ccc(OCc3nc(-c4ccco4)oc3C)c(OC)c2)o1`, the melting point was in the range of 183 to 184 °C.
In turn, `CS(=O)(=O)Nc1ccccc1C(=O)Nc1ccc(OCCN2CCCC2)cc1` had a melting point of 221 to 222 °C.
As for `COC(=O)c1cc2nnn(-c3ccccc3)c2nc1OCc1ncnn1C`, the melting point is 188 to 190 °C.
With `COc1ccc(NC(=O)OC(C)(C)C)cc1`, the melting point fell in the range of 93 to 94 °C.
Take `CNC(=O)C1=CC(C)(COC)Oc2ccc([N+](=O)[O-])cc21` (configuration not stated): the melting point fell in the range of 128 to 130 °C.
Compound `CC1(C)CCC(C)(C)c2cc(-c3cc4ccc(C(=O)O)cc4s3)c(Br)cc21` returned a melting point of 272 to 275 °C.
On to `Cc1cc(SC2=C(O)CC(CCc3ccc(O)cc3)(C3CCCCC3)OC2=O)c(C(C)(C)C)cc1OS(=O)(=O)c1ccc(C#N)cc1` (configuration not stated), for which the melting point was determined as 112 °C.
In turn, `CCOC(=O)c1ncc2[nH]c3c(C(C)(C)C)cc(C(C)(C)C)cc3c2c1C` returned a melting point of 260 to 263 °C.
Next, `CC(=O)c1ccc2c(c1)C(C(=O)Nc1cccc(C(=O)Nc3ccc(Br)cc3)c1)C(=O)N2C` (configuration not stated): 234 to 236 °C; `COc1ccc2c(c1)cc(-c1cc3cccnc3[nH]1)n2C`: 234 to 235 °C; `CON=C(C)CN1C(=O)c2ccccc2C1=O`: 114 to 131 °C.
The same measure for `CCOC(=O)C(Cc1cc(OC)c(OC)cc1OC)C(=O)OCC`: 50 to 51 °C; for `CCCCCCCCCCCCCCCCCCOc1cc(OC(C)=O)cc(N(CC(=O)O)CC(=O)O)c1`: 122 to 127 °C; for `CC1CC(=O)NN=C1c1ccc(NN=C(c2ccc(O)cc2O)c2ccc(O)cc2O)cc1` (configuration not stated): 150 to 175 °C.
Next, `COc1ccc(O)cn1`: 80 to 82 °C; `Cc1cccc(N(C)c2n[nH]c3ncnc(Nc4cccc(Cl)c4)c23)n1`: 231 to 233 °C; `COC(=O)c1ccc(-c2cc(-c3ccccc3)on2)cc1`: 201 to 202 °C.
As to `CN1C(=O)[C@H](NC(=O)CCc2ccc(Cl)cc2)N=C(c2ccccc2)c2ccccc21`, the melting point was in the range of 203 to 205 °C.
The compound `CNC(=O)C(=NO)c1ccccc1CO` returned a melting point of 128 to 131 °C.
The same measure for `CCc1nnc(-c2ccc(C)c(-c3ccc(F)cc3)n2)nc1CC`: 108 °C; for `COc1cc2c(cc1Nc1ncc(Cl)c(Nc3ccc(N4CCOCC4)cc3OC)n1)CCN(C[C@H](O)C(F)(F)F)CC2`: 95 to 102 °C.
Turning to `CCCCn1c(=O)c2c(ncn2S(=O)(=O)c2ccc(OC)c(OC)c2)n(CCCC)c1=O`, the melting point is 134 to 135 °C.
